Results published in ChEMBL document CHEMBL5385889, “Design, synthesis and biological evaluations of quinolone amides against African trypanosomiasis with improved solubility” (Eur J Med Chem, 2023).
≈ marks a conversion by molar mass, not a printed value.

Tests used:
[1] = Octanol/water partition coefficient, log P of the compound by LC-MS analysis; format: physicochemical
Trypanosoma brucei = assay: Antitrypanosomal activity against wild type Trypanosoma brucei M1.2 Lister 427 trypomastigotes form assessed as parasite growth inhibition incubated for 48 hrs; format: functional, organism-based; conditions: M1.2 Lister 427, 48 h
J774.1 = assay: Cytotoxicity against mouse J774.1 cells assessed as reduction in cell viability incubated for 24 hrs by alamar blue staining based analysis; format: functional
[2] = Selectivity index, ratio of CC50 for cytotoxicity against mouse J774.1 cells assessed as reduction in cell viability to IC50 for antitrypanosomal activity against wild type Trypanosoma brucei M1.2 Lister 427 trypomastigotes form assessed as parasite growth inhibition; format: toxicity, cell-based; conditions: read-out: Ratio CC50/IC50
[3] = Thermodynamic aqueous solubility of compound in PBS buffer at pH 7.4 at 37 degreeC measured after 24 hrs by HPLC analysis; format: physicochemical; conditions: read-out: Therm_solubility

| Compound | logP [1] | IC50 (Trypanosoma brucei) [µM] | CC50 (J774.1) [µM] | selectivity ratio [2] | logP ([1]; read-out: logP) | solubility thermodynamic at 24 h [3] [µg/mL] |
| --- | --- | --- | --- | --- | --- | --- |
| CCCCn1cc(C(=O)NCc2ccccc2)c(=O)c2cc(F)c(N3CCOCC3)cc21 | 4.1 | 0.047 | 57 | 1210 |  |  |
| CCCCn1cc(C(=O)NCc2ccccc2)c(=O)c2ccc(N3CCOCC3)cc21 |  | 0.23 | > 100 | > 435 |  |  |
| CCCCn1cc(C(=O)NCc2ccccc2)c(=O)c2c(F)cc(N3CCOCC3)cc21 |  | 0.05 | > 100 | > 2000 | 3.38 |  |
| CCCCn1cc(C(=O)NCc2ccc(CN)cc2)c(=O)c2cc(F)c(N3CCOCC3)cc21 |  | 0.3 | 49.2 | 164 | 3.8 | > 1000 |
| CCCCn1cc(C(=O)NC2(c3ccccc3)CCOCC2)c(=O)c2ccc(N3CCOCC3)cc21 |  | > 20 | > 50 |  | 3.6 | 1.03 (≈ 2.1 µM) |
| CCCCn1cc(C(=O)NCc2ccccc2)c(=O)c2ccc(NCCOCCOCCOC)cc21 |  | 1.15 | > 50 | > 43 | 3.38 | 41 (≈ 82.7 µM) |
| CCCCn1cc(C(=O)NCc2ccccc2)c(=O)c2cc(F)c(N3CCOCC3)c(Cl)c21 |  | 0.18 | > 50 | > 278 | 5.01 | < 0.1 |
| CCCCn1cc(C(=O)NC2(c3ccccc3)CCCCC2)c(=O)c2cc(F)c(N3CCOCC3)cc21 |  | 4.72 | 31 | 7 | 5.64 | < 0.1 |
| CCCCn1cc(C(=O)NC2(c3ccccc3)CC2)c(=O)c2cc(F)c(N3CCOCC3)c(F)c21 |  | 0.06 | > 20 | > 333 | 4.57 | 0.23 (≈ 0.478 µM) |
| CCCCn1cc(C(=O)NC2(c3ccccc3)CCCCC2)c(=O)c2ccc(N3CCOCC3)cc21 |  | 4.18 | 37 | 9 | 4.94 | < 0.1 |
| CCCCn1cc(C(=O)NC2(c3ccccc3)CCS(=O)(=O)CC2)c(=O)c2ccc(N3CCOCC3)cc21 |  | > 20 | > 50 |  | 2.83 | 3.35 (≈ 6.23 µM) |
| CCCCn1cc(C(=O)NCc2ccccc2)c(=O)c2cc(OCC)c(N3CCOCC3)c(OCC)c21 |  | 1.93 | 33.2 | 17 | 5.51 | < 0.1 |
| CCCCn1cc(C(=O)NCc2cccc(C#N)c2)c(=O)c2c(F)cc(N3CCOCC3)cc21 |  | 0.022 | > 50 | > 2270 | 2.98 | 0.24 (≈ 0.519 µM) |
| CCCCn1cc(C(=O)NCc2ccc(CN)cc2)c(=O)c2c(F)cc(N3CCOCC3)cc21 |  | 0.25 | > 50 | > 200 | 2.72 | > 1000 |
| CCCCn1cc(C(=O)NC2(c3ccccc3)CCCCC2)c(=O)c2c(F)cc(N3CCOCC3)cc21 |  | 4.22 | > 50 | > 12 | 4.97 | < 0.1 |
| CCCCn1cc(C(=O)NCc2ccc(CN)cc2)c(=O)c2ccc(N3CCOCC3)cc21 |  | 1.55 | > 50 | > 32 | 3.24 | > 1000 |
| CCCCn1cc(C(=O)NCc2ccccc2)c(=O)c2ccc(N3CCC(OCCOCCOCCOC)CC3)cc21 |  | 1.01 | 48.5 | 48 | 4.05 | 86.9 (≈ 150 µM) |

| Compound | logP [1] | IC50 (Trypanosoma brucei) [µM] | CC50 (J774.1) [µM] | selectivity ratio [2] | logP ([1]; read-out: logP) | solubility thermodynamic at 24 h [3] [µg/mL] |
| --- | --- | --- | --- | --- | --- | --- |
| O=C(NCc1ccccc1)c1cn(CC2CCC2)c2cc(N3CCOCC3)ccc2c1=O |  | 0.8 | 29.9 | 37 | 3.68 | 1.66 (≈ 3.85 µM) |
| CCCCn1cc(C(=O)NC2(c3ccccc3)CCCC2)c(=O)c2cc(F)c(N3CCOCC3)cc21 |  | 1.83 | 47.4 | 26 | 5.24 | < 0.1 |
| CCCCn1cc(C(=O)NC2(c3ccccc3)CC2)c(=O)c2ccc(N3CCOCC3)cc21 |  | 0.72 | > 50 | > 69 | 3.76 | < 0.1 |
| CCCCn1cc(C(=O)NCc2ccc(C#N)cc2)c(=O)c2c(F)cc(N3CCOCC3)cc21 |  | 0.1 | > 50 | > 500 | 2.9 | 0.88 (≈ 1.9 µM) |
| CCCCn1cc(C(=O)NCc2ccccc2)c(=O)c2cc(F)c(N3CCOCC3)c(Br)c21 |  | 0.47 | > 50 | > 106 | 5.05 | < 0.1 |
| CCCCn1cc(C(=O)NC23CC(C2)C3)c(=O)c2ccc(N3CCOCC3)cc21 |  | 3.72 | > 50 | > 13 | 3.74 | 3.02 (≈ 7.64 µM) |
| CCCCn1cc(C(=O)NC2(c3ccccc3)CC2)c(=O)c2c(F)cc(N3CCOCC3)cc21 |  | 0.18 | > 50 | > 278 | 3.54 | < 0.1 |
| CCCCn1cc(C(=O)NCc2cccc(CN)c2)c(=O)c2ccc(N3CCOCC3)cc21 |  | 1.08 | > 50 | > 46 | 3.31 | > 1000 |
| O=C(NCc1ccccc1)c1cn(CC2CC2)c2cc(N3CCOCC3)ccc2c1=O |  | 0.55 | > 50 | > 91 | 3.24 | 5.81 (≈ 13.9 µM) |
| CCCCn1cc(C(=O)NC2(c3ccccc3)CC2)c(=O)c2cc(F)c(N3CCOCC3)cc21 |  | 0.15 | > 50 | > 333 | 4.46 | < 0.1 |
| O=C(NCc1ccccc1)c1cn(C23CC(C2)C3)c2cc(N3CCOCC3)ccc2c1=O |  | 0.13 | 48.4 | 373 | 4.57 | 4.06 (≈ 9.45 µM) |
| O=C(NCc1ccccc1)c1cn(CC2CCCCC2)c2cc(N3CCOCC3)ccc2c1=O |  | 0.86 | > 50 | > 58 | 4.59 | < 0.1 |
| CCCCn1cc(C(=O)NCc2ccccc2)c(=O)c2ccc(OCCOCCOCCOC)cc21 |  | 1.12 | > 50 | > 45 | 3.57 | 93 (≈ 187 µM) |
| CCCCn1cc(C(=O)NCc2ccccc2)c(=O)c2ccc(N3CCCN(C)CC3)cc21 |  | 2.97 | 14.2 | 5 | 4.51 | 20.9 (≈ 46.8 µM) |
| CCCCn1cc(C(=O)NCc2cccc(CN)c2)c(=O)c2cc(F)c(N3CCOCC3)cc21 |  | 0.52 | 41.8 | 80 | 3.83 | > 1000 |
| CCCCN1CC(C)(C(=O)NCc2ccccc2)C(=O)c2ccc(N3CCOCC3)cc21 (centres undefined) |  | 3.74 | > 50 | > 13 | 3.04 | 10.4 (≈ 23.9 µM) |
| CCCCn1cc(C(=O)NC2(c3ccccc3)CCCC2)c(=O)c2ccc(N3CCOCC3)cc21 |  | 4.4 | 34.1 | 8 | 4.57 | < 0.1 |
